Assay results: publication PMC11678869, “Functional Role of Odorant-Binding Proteins in Response to Sex Pheromone Component Z8-14:Ac in Grapholita molesta (Busck)” (Insects, 2024)
Where two headings read alike, the source gives them in different places.

What was measured:
[1] = target: rGmolPBP1 (Grapholita molesta, UniProt A0A2R4SBD6); assay: Fluorescence competitive binding assay with 1-NPN probe
Description: (§1) Previous researchers have successfully expressed rGmolPBP1, rGmolPBP2, rGmolPBP3, rGmolGOBP1, and rGmolGOBP2 proteins using prokaryotic expression systems. In this article, the DNA sequences of these five GmolPBPs and GmolGOBPs, with the signal peptides removed and restriction sites on both ends, were inserted into the expression vector pET28a(+) linearized with the same restriction enzyme. These vectors were then transformed into Escherichia coli BL21(DE3) and induced by isopropyl-β-d-thiogalactoside (IPTG). Since all five recombinant proteins were expressed in inclusion bodies, they were denatured using 8 M urea and then renatured using a cysteine/cystine REDOX system. The reduced recombinant proteins were purified using an Ni-NTA His Bind Resin column (7Sea Pharmatech Co., Ltd., Shanghai, China). Non-target proteins were washed off with washing buffer (20 mM Tris-HCl (pH 7.4), 20 mM imidazole, 1 mM PMSF, and 250 mM NaCl), and then the target proteins were eluted with elution buffer (20 mM Tris-HCl (pH 7.4), 1 mM PMSF, and 250 mM NaCl) with an increasing concentration of imidazole (50, 100, and 200 mM). Five milliliters of eluents with high target protein content and low levels of contaminants were collected and placed in dialysis tubing (Coolaber, Beijing, China) with a molecular weight cut-off of 3.5 kDa to remove NaCl and imidazole. The purified soluble proteins were stored at −80 °C before use.
(§2) The binding affinities of three rGmolPBPs and two rGmolGOBPs for Z8-14:Ac were determined using an F-2700 fluorescence spectrophotometer (Hitachi, Tokyo, Japan). First, we measured the dissociation constants (Kd) of the rGmolPBPs (or rGmolGOBPs) binding to 1−NPN. Each protein was diluted to 2 μM with 20 mM Tris-HCl buffer (pH 7.4); then, 2 mL of the protein solution was transferred to a quartz cuvette and titrated with 1 mM 1−NPN to a final concentration of 1–18 μM. As the doses of 1−NPN were increased, the increasing amplitude of the fluorescence intensity decreased, and finally, the binding of the protein to 1−NPN reached saturation. The Kd values were calculated using the nonlinear regression method and the Scatchard equation. Second, we measured the inhibitory constant (Ki) of Z8-14:Ac’s competitive binding with each rGmolPBP (or rGmolGOBP) from the protein/1−NPN complex. The initial fluorescence intensity values were measured after a 2 min reaction in 2 mL solution of 20 mM Tris-HCl (pH 7.4) containing 2 µM rGmolPBP (or rGmolGOBP) protein and 2 µM 1−NPN. Then, the solution was titrated with aliquots of 1 mM Z8-14:Ac to obtain final concentrations in the range of 1–14 µM, and the fluorescence intensity value of each reaction was recorded. The Ki values were calculated using the following equation: Ki = [IC50]/(1 + [1 − NPN]/Kd) where IC50 is the concentration of Z8-14:Ac when half of the initial fluorescence intensity value of the rGmolPBP (or GmolGOBP)/1−NPN complex is replaced, [1 − NPN] represents the concentration of free 1−NPN, and Kd is the dissociation constant of the rGmolPBP (or GmolGOBP)/1−NPN complex.

[2] = target: rGmolGOBP1 (Grapholita molesta, UniProt H9XTU5); assay: as above; details: for Ki: calculated from IC50 and Kd of 1-NPN
Sequence of rGmolGOBP1 (H9XTU5 entry or part of it): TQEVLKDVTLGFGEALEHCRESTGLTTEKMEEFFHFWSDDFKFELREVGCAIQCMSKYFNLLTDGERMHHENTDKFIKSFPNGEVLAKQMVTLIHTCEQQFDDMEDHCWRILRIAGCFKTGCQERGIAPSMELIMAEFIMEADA
Description: as §1, §2

[3] = target: rGmolGOBP2 (Grapholita molesta, UniProt H9XTU6); assay: as above
Sequence of rGmolGOBP2 (H9XTU6 entry or part of it): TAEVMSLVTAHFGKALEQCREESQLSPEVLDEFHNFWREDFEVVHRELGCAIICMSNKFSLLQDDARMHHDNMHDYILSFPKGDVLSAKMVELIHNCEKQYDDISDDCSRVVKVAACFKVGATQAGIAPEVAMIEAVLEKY
Description: as §1, §2

[4] = target: rGmolPBP3 (Grapholita molesta, UniProt A0A059VBP3); assay: as above
Sequence of rGmolPBP3 (A0A059VBP3 entry or part of it): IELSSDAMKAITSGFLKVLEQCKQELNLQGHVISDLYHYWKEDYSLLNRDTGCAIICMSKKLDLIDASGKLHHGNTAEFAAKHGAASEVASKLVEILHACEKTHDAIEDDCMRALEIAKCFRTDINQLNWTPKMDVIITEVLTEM
Description: as §1, §2

[5] = target: rGmolPBP2 (wild-type) (Grapholita molesta, UniProt A0A059VC28); assay: as above
Sequence of rGmolPBP2 (wild-type) (A0A059VC28 entry or part of it): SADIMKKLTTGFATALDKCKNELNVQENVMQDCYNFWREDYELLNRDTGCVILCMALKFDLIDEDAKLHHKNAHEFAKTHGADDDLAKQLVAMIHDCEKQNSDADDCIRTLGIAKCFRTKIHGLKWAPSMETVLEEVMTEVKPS
Description: as §1, §2

[6] = system: OFM males; assay: Field trapping with delta traps, peach orchard; assay type: in vivo, Grapholita molesta; details: for Inhibition Rate of OFM Males: vs 100:4:0
Method: To determine the inhibitory effects on OFM male adults and the impact on the trapping effects of PFM male adults, varying amounts of Z8-14:Ac (0, 5, 10, 25, 50, 75, 100, 125, 150 μg) or Z10-14:Ac (0, 25, 50, 100, 150, 250, 350, 450, and 550 μg) were added to rubber septa loaded with a constant dosage of the main pheromone (500 μg of Z8-12:Ac and 20 μg of E8-12:Ac) of the PFM. Trapping experiments of Z8-14:Ac were carried out in peach and pear orchards in Yan’an and Xinjiang (China), respectively. Trapping tests of Z10-14:Ac were performed in pear orchards in Xinjiang (China). Each orchard had nine plots, with three plots in one field. Each plot consisted of a linear arrangement of traps loaded with a constant dosage of the main pheromones and different percentages of the secondary pheromone Z8-14:Ac or Z10-14:Ac of the PFM. Plots in the same field were placed 30 m apart, and fields were ≥1 km apart. The traps were hung 1.4 m from the ground on a suspension bracket between two rows of peach or pear trees from 10 June to 25 July 2021 in Xinjiang and from 15 June to 30 July 2021 in Yan’an. The positions of the traps within the plot were randomly arranged. Every 5 days, counts were taken, and the traps were rotated to the adjacent position to avoid any potential position effects. The septa loaded with sex pheromone components were replaced with new ones after every 15 days of suspension. The data were analyzed using a one-way ANOVA, and the differences in the average trapping of OFM and PFM males using sex attractants containing different amounts of Z8-14:Ac or Z10-14:Ac were further analyzed using Tukey’s HSD test, both of which were performed using SPSS 23.0.

[7] = 2 μM protein, 2 μM 1-NPN, pH 7.4, read-out: IC50 (displacement of 1-NPN)
[8] = calculated from IC50 and Kd of 1-NPN
[9] = peach orchard, Z8-12:Ac/E8-12:Ac/Z8-14:Ac 500/20/5 μg (100:4:1)
[10] = peach orchard, Z8-12:Ac/E8-12:Ac/Z8-14:Ac 500/20/10 μg (100:4:2)
[11] = peach orchard, Z8-12:Ac/E8-12:Ac/Z8-14:Ac 500/20/25 μg (100:4:5)
[12] = peach orchard, Z8-12:Ac/E8-12:Ac/Z8-14:Ac 500/20/50 μg (100:4:10)
[13] = peach orchard, Z8-12:Ac/E8-12:Ac/Z8-14:Ac 500/20/75 μg (100:4:15)
[14] = peach orchard, Z8-12:Ac/E8-12:Ac/Z8-14:Ac 500/20/100 μg (100:4:20)
[15] = peach orchard, Z8-12:Ac/E8-12:Ac/Z8-14:Ac 500/20/125 μg (100:4:25)
[16] = peach orchard, Z8-12:Ac/E8-12:Ac/Z8-14:Ac 500/20/150 μg (100:4:30)

Sequence of rGmolPBP1 (A0A2R4SBD6 entry or part of it): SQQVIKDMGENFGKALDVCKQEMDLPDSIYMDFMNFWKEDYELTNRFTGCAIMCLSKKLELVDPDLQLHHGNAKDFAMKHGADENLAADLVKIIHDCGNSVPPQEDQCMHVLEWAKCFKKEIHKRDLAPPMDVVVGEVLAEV

CCCCC/C=C\CCCCCCCOC(C)=O [Z8-14:Ac, (Z)-8-tetradecenyl acetate] was tested, and the IC50 [1, 7] was 2930 ± 70 nM, the Ki [1, 8] was 1660 ± 40 nM and the IC50 [2, 7] was > 14000 nM. For the same compound, the Ki [2] was “could not be calculated”, the Ki ([2]; read-out: Ki) was > 14000 nM and the IC50 [3, 7] was 3530 ± 220 nM. It also gave a Ki [3, 8] of 2860 ± 180 nM, an IC50 [4, 7] of 2780 ± 320 nM and a Ki [4, 8] of 2560 ± 270 nM. The IC50 [5, 7] was 1260 ± 40 nM, the Ki [5, 8] was 660 ± 20 nM and the “Total OFM Males/Trap” value [6, 9] was 46.08±3.25 b Males/Trap. The “Inhibition Rate of OFM Males” value [6, 9] was 58.81%, the “Total OFM Males/Trap” value [6, 10] was 40.89±2.35 b Males/Trap and the “Inhibition Rate of OFM Males” value [6, 10] was 63.45%. For the same compound, the “Total OFM Males/Trap” value [6, 11] was 14.82±1.47 c Males/Trap, the “Inhibition Rate of OFM Males” value [6, 11] was 86.75% and the “Total OFM Males/Trap” value [6, 12] was 9.04±1.08 c Males/Trap. The “Inhibition Rate of OFM Males” value [6, 12] was 91.92%, the “Total OFM Males/Trap” value [6, 13] was 9.55±1.09 c Males/Trap and the “Inhibition Rate of OFM Males” value [6, 13] was 91.46%. For the same compound, the “Total OFM Males/Trap” value [6, 14] was 9.67±1.52 c Males/Trap, the “Inhibition Rate of OFM Males” value [6, 14] was 91.36% and the “Total OFM Males/Trap” value [6, 15] was 6.86±0.24 c Males/Trap. The “Inhibition Rate of OFM Males” value [6, 15] was 93.87%, the “Total OFM Males/Trap” value [6, 16] was 7.96±1.19 c Males/Trap and the “Inhibition Rate of OFM Males” value [6, 16] was 92.88%. For the same compound, the “reduction of the number of OFM males caught” value ([6]; peach orchard, adding 5–30% of Z8-14:Ac to Z8-12:Ac and E8-12:Ac) was “more than 86%” and the “reduction of the capture of OFM males” value ([6]; peach orchards, adding 1–2% of Z8-14:Ac to Z8-12:Ac and E8-12:Ac (100:4)) was 58.81–63.45%.
